The values that follow come from patent US12122786B2, “Inhibitors of cyclic mono- and di-nucleotide phosphodiesterases and the uses thereof” (priority 2020, dated 2024).

One data set deals with Yybt (Bacillus subtilis, UniProt P37484). The data set is described as follows: Selectivity, HPLC analysis of Yybt reaction. Particulars: 70 μM c-di-AMP, 1 μM Yybt, 37° C., 60 min.
The target in data set [1] is T1, MTB CdnP (Mycobacterium tuberculosis, UniProt P71615). The data set can be described thus: IC50 determination of MTB CdnP inhibition, coralyne assay. The format is biochemical. Particulars: 50 nM MTB CdnP and 80 μM c-di-AMP, read-out: IC50 of MTB CdnP enzymatic activity inhibition.
In the next data set the target is RocR (Pseudomonas aeruginosa, UniProt Q9HX69). The data set can be described thus: Selectivity, HPLC analysis of RocR reaction. The conditions noted are these: 25 μM c-di-GMP, 10 nM RocR, 37° C., 60 min.
The target in data set [2] is T1, MTB CdnP. The data set is described as follows: Intrinsic fluorescence binding assay. Particulars: 2 μM MTB CdnP, varying concentrations, 1× PBS. As for the experimental part:
(§1) Next, we sought to determine C82 mode of inhibition. Firstly, we confirmed that C82 does indeed bind to MTB CdnP, using intrinsic fluorescence assay^20. […] We then determined whether C82 could displace bound c-di-AMP from MTB CdnP. […] We also used a secondary fluorescent polarization displacement assay to confirm this finding. Briefly, fluorescent labeled c-di-GMP was incubated with MTB CdnP and treated with different concentrations of C82, or c-di-AMP in the presence of calcium to inhibit the cleavage of the bound CDN′″. […] We therefore concluded that C82 inhibits MTB CdnP by binding to a non-cyclic dinucleotide binding site. Kinetics studies reveal that C82 inhibits MTB CdnP with an apparent inhibition constant of approximately 8 μM (FIG. 8). Future structural work, beyond the scope of this work should help clarify the binding site of C82.
Solutions containing 2 μM MTB CndP, and varying concentrations of C82 in 1× PBS were incubated for 30 min at room temperature. Fluorescence spectra were obtained by measuring fluorescence intensities in the 310 nm to 400 nm range following an excitation at 290 nm wavelength.

Data set [3] addresses T1, MTB CdnP. The data set can be described thus: Fluorescence polarization competition assay. Particulars: 150 μM MTB CdnP, 50 nM F-c-di-GMP, calcium. The format is binding. The method, then:
(§2) FIG. 7A: unlabeled c-di-AMP inhibits ^32P-c-di-AMP sequestering by MTB CdnP in a concentration dependent manner. FIG. 7B: C82 effects on ^32P-c-di-AMP sequestering by MTB CdnP. […] CDA=c-di-AMP. ***=p-value<0.001. Statistical analysis conducted using the student's t-test.
as §1
Fluorescence polarization was determined using Biotek Cytation 5 multi-mode reader (excitation 485 nm/20 and emission 528 nm/20). Anisotropy was calculated using the GEN 5™ microplate reader and imaging software.

A further data set deals with GBS-CdnP. The data set is described as follows: Selectivity, HPLC analysis of GBS CdnP reaction. The conditions noted are these: 50 μM c-di-AMP, 100 nM GBS CdnP, room temperature, 15 min.
For data set [4], the system named is mammalian cells (MDA-MB-231, and MRC-5). Particulars: up to 100 μM, 24 h.
The target of data set [5] is T1, MTB CdnP. The data set is described as follows: Kinetics study (Dixon plot) by coralyne assay. The conditions noted are these: 50 nM MTB CdnP, 30° C., read-out: apparent inhibition constant. The format is biochemical. As for the experimental part:
FIG. 8: C82 Dixon plot. Initial velocity was determined using slope of c-di-AMP hydrolysis kinetics.
as §1

In data set [6] the target is T1, MTB CdnP. The data set can be described thus: HPLC analysis of c-di-AMP cleavage by MTB CdnP. The format is biochemical. The conditions noted are these: 20 μM compound, 100 nM MTB CdnP, 70 μM c-di-AMP, 37° C.
In the next data set the target is T2, PDE5A (Homo sapiens, UniProt O76074).
T2 construct: purchased Reaction Biology
The data set can be described thus: Cyclic mononucleotide phosphodiesterase inhibition (PDE5A), Transcreener fluorescence polarization assay. The format is biochemical. Particulars: 10 μM of compound, 1 μM cGMP, 1 h. As for the experimental part:
Cyclic mononucleotide phosphodiesterase inhibition (PDE5A): 10 μM of compound was added to PDE5A in Buffer (10 mM Tris, pH 7.5, 5 mM MgCl2, 0.01% Brij 35, 1 mM DTT, and 1% DMSO). 1 μM cGMP was added and the reaction was incubated for 1 h. The assay used detects the reaction product, GMP, by Transcreener Fluorescence polarization assay (Reaction Biology).

The target of the next data set is poxin (Vaccinia virus, UniProt Q01225). The data set is described as follows: Selectivity, HPLC analysis of poxin reaction. Particulars: 20 μM 2′3 cGAMP, 5 nM poxin, room temperature, 20 min.
The target in a further data set is T3, ENPP1 (Homo sapiens, UniProt P22413).
T3 sequence (P22413 1-925): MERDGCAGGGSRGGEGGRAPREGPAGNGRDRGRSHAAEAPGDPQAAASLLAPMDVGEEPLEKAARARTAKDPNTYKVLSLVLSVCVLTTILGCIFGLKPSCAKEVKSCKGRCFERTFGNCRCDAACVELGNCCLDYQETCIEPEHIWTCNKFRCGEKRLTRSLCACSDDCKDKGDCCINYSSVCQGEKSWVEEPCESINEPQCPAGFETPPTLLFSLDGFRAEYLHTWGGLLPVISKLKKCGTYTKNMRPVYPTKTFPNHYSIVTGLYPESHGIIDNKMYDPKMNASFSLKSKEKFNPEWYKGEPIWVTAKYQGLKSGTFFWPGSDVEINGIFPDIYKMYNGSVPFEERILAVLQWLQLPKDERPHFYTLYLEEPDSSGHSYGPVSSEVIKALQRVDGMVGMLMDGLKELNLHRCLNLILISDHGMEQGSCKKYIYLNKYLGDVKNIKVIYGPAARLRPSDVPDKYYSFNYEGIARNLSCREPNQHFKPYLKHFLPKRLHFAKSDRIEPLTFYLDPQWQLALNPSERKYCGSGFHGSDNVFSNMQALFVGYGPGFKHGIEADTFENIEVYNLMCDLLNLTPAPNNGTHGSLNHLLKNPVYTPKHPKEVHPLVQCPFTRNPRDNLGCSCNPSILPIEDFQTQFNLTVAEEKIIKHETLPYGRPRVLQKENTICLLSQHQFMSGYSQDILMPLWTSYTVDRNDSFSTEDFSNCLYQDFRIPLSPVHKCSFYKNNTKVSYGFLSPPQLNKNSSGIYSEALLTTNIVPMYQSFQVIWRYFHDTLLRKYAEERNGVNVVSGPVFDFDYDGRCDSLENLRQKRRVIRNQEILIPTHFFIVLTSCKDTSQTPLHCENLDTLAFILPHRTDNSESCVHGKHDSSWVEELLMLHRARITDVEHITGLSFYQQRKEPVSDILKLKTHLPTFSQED
The data set is described as follows: Selectivity, HPLC analysis of ENPP1 reaction. Particulars: 25 μM cGAMP, 4.58 nM ENPP1, 37° C., 60 min.

Data set [7] deals with T1, MTB CdnP. The data set can be described thus: Differential radial capillary action of ligand assay (DRaCALA). Particulars: 20 μM MTB CdnP, 200 pM 32P c-di-AMP; C82 even at 300 μM. The format is binding. As for the experimental part: as §2, §1
5 μl of the reaction mixture was pipetted onto dry untreated nitrocellulose membrane (GE Healthcare) and allowed to dry at room temperature. The nitrocellulose membrane was exposed to the GE Storage Phosphor screen for 8 h and then visualized with Typhoon™ FLA 9500 biomolecular imager.

In data set [8] the target is T1, MTB CdnP. The format is biochemical. Particulars: 20 to 150 μM inhibitor, 0.5 μM MTB CdnP, 1 h at 37° C.
Another data set deals with PDE4. The conditions noted are these: read-out: IC50 (PDE4 inhibitor); cited from earlier work.
The test system of another data set is PDE3. The conditions noted are these: read-out: IC50 (PDE3 inhibitor); cited from earlier work.
A further data set concerns PDE10. Particulars: read-out: IC50 (PDE10 inhibitor); cited from earlier work.

Structures are written as SMILES.

Consider `CCc1cc2c(=O)n(CC(=O)Nc3ccccc3OC)cnc2s1` [Compound C82], for which, at Yybt, the “inhibition of Yybt” value is on record as “did not inhibit”. Moreover, at MTB CdnP [1], the IC50 was found to be 17.4 µM. Further, the “inhibition of RocR” value at RocR is on record as “did not inhibit”. Also, the “binding to MTB CdnP (intrinsic fluorescence decay)” value on MTB CdnP [2] is given as “does bind to MTB CdnP”. Further, the “displacement of fluorescent labeled c-di-GMP from MTB CdnP (fluorescence polarization)” value on MTB CdnP [3] is “did not displace the fluorescent labeled c-di-GMP”. For the same compound, in the data set with GBS-CdnP, the “inhibition of GBS-CdnP” value is listed as “did not inhibit”. In data set [4], the “cytotoxicity against mammalian cells (cell viability)” value is given as “did not significantly inhibit cell viability”. For the same compound, the Ki on MTB CdnP [5] is about 8 µM. On MTB CdnP [6] (3 h), the “inhibition of c-di-AMP cleavage by MTB CdnP (HPLC), 3 h incubation” value is reported as “most potent inhibitory effects”. Moreover, on MTB CdnP [6] (12 h), the “inhibition of c-di-AMP cleavage by MTB CdnP (HPLC), overnight (12 h) incubation” value is given as “retained any inhibitory effect”. Also, the “% inhibition (PDE5A)” value at PDE5A was found to be 32.00%. Besides, at poxin, the inhibition of poxin result was “did not inhibit”. For the same compound, the “inhibition of ENPP1” value on ENPP1 is recorded as “did not inhibit”. The “displacement of radiolabeled c-di-AMP from MTB CdnP (DRaCALA)” value on MTB CdnP [7] is reported as “did not displace radiolabeled c-di-AMP”. The “inhibition of c-di-AMP hydrolysis by MTB CdnP (TLC), varying inhibitor concentrations” value against MTB CdnP [8] is listed as “most potent inhibition”.
`CCOc1cc([C@@H](CS(C)(=O)=O)N2C(=O)c3cccc(NC(C)=O)c3C2=O)ccc1OC` [apremilast]: the IC50 with PDE4 is 0.074 µM.
On to `Nc1ncnc2c1ncn2[C@@H]1O[C@@H]2COP(=O)(O)O[C@H]3[C@@H](O)[C@H](n4cnc5c(N)ncnc54)O[C@@H]3COP(=O)(O)O[C@H]2[C@H]1O` [c-di-AMP, reference compound], for which, on MTB CdnP [7], the “displacement of radiolabeled c-di-AMP from MTB CdnP (DRaCALA)” value was “could displace radiolabeled c-di-AMP”.
In the case of `CSc1ccc(C(=O)c2[nH]c(=O)[nH]c2C)cc1` [enoximone], in the data set on PDE3, the IC50 is 10 µM.
As to `COc1ccc(Cc2nccc3cc(OC)c(OC)cc23)cc1OC` [papaverine], the IC50 with PDE10 was 0.0923 µM.
